Like-named read-outs stand apart in the source and are kept apart here.
Assays:
human GIP Receptor = target: T1, human GIP Receptor (Homo sapiens, UniProt P48546); assay: In vitro binding activity to human GIP receptor ([125I]GIP displacement, crude cell membranes); conditions: ratio of the Ki value of the endogenous ligand to the Ki value of the test compound; larger ratio = stronger binding
T1 construct: expressed in transfected cells
T1 sequence (P48546 22-466): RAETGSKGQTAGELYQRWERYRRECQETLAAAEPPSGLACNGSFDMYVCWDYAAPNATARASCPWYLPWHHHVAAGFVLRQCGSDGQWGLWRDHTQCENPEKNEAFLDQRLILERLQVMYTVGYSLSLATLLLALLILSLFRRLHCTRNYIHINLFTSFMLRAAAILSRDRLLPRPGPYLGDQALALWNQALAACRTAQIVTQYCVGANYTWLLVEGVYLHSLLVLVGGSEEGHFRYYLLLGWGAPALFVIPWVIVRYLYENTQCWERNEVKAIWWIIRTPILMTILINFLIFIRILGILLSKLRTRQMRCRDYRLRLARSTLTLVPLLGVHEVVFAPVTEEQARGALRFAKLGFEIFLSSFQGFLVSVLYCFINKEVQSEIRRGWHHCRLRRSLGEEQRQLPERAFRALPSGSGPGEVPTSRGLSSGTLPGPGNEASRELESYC
Method: (§1) 89 µL of membrane dissolved in binding buffer (50 mM Hepes, pH 7.4, 5 mM MgCl2 , 5 mM EDTA, 0.005% TWEEN, 0.005% HSA) was transferred to a 96-well test plate (5 µg/well). The compound was serially diluted in DMSO, and then, 1 µL of the diluted compound or 100% DMSO was added to the test plate containing the membrane solution. 10 µL of [^125I] […] The test plate was left at room temperature for 90 minutes. The membrane complexes were harvested into a GF/B plate pre-coated with 0.5% PEI by using a Cell Harvester, and washed for 3 times with 500 µL of pre-cooled elution buffer (50 mM Hepes, pH 7.4, 500 mM NaCl) at 4°C. After drying at 37°C for 2 hours, 50 µL of scintillation fluid was added to each well. The plate was read with a MicroBeta2 scintillation counter after sealing and settling for at least 1 hour so as to determine the membrane bound radioligand level.
hGIP and the compound of the present invention were dissolved in DMSO and stored at -80°C. 98 µL of membrane dissolved in binding buffer (50 mM HEPES pH 7.4, 5 mM MgCl2, 1 mM CaCl2, 0.1% BSA, 0.005% Tween-20) was transferred to a 96-well test plate (15 µg/well). The compound was serially diluted in DMSO, and then, 2 µL of the diluted compounds or 100% DMSO was added to the test plate containing the membrane solution. […] The test plate was left at room temperature for 90 minutes. The membrane complexes were harvested into a GF/B plate pre-coated with 0.5% PEI by using a Cell Harvester, and washed for 3 times with 500 µL of pre-cooled elution buffer (50 mM Tris-HCl pH 7.4, 125 mM NaCl) at 4°C. After drying at 37°C for 2 hours, 50 µL of scintillation fluid was added to each well. The plate was read with a MicroBeta2 scintillation counter after sealing and settling for at least 1 hour so as to determine the membrane bound radioligand level.
The IC50 concentration was converted to Ki (Ki was the inhibition constant) using the Cheng-Prusoff equation. Table 1. Receptor Binding Affinity, Ki Ratio

[1] = Pharmacokinetics following single administration in SD rats; conditions: male, Sprague-Dawley, rat, in vivo, sc
Method: The compound was administrated to male SD rats (230-268 g, n=3) at a dose of 50.0 nmol/kg (s.c.) or 25.0 nmol/kg (i.v.). […] 30.0 μL of thawed plasma sample was taken. 150 μL of acetonitrile solution (containing 5 ng·mL^-1 Verapamil , 50 ng·mL^-1 Glibenclamide, 200 ng·mL^-1 Tolbutamide and 200 ng·mL^-1 Diclofenac) were added to precipitate protein. The mixture was vortexed for 5 minutes, and centrifuged at 3700 rpm for 8 minutes. 70.0 μL of the supernatant was taken, into which 70.0 μL of 0.5% aqueous formic acid solution was added. The mixture was vortexed for 5 minutes. 15 μL of the mixture solution was sampled and injected into the LC-MS/MS to determine the drug concentration in plasma. 20.0 μL of thawed plasma sample was taken. 60 μL of acetonitrile solution (containing 5 ng·mL^-1 Verapamil, 50 ng·mL^-1 Glibenclamide, 200 ng·mL^-1 Tolbutamide and 200 ng·mL^-1 Diclofenac) were added to precipitate protein. […] The mixture was vortexed for 10 minutes. 10.0 μL of the mixture solution was sampled and injected into the LC-MS/MS to determine the drug concentration in plasma. 30.0 μL of thawed plasma sample was taken. 150 μL of acetonitrile solution (containing 5 ng·mL^-1 Verapamil, 50 ng·mL^-1 Glibenclamide, 200 ng·mL^-1 Tolbutamide and 200 ng·mL^-1 Diclofenac) were added to precipitate protein. The mixture was vortexed for 5 minutes, and centrifuged at 3700 rpm for 8 minutes. 70.0 μL of the supernatant was taken, into which 70.0 μL of 0.5% aqueous formic acid solution was added. The mixture was vortexed for 5 minutes. 10.0 μL of the mixture solution was sampled and injected into the LC-MS/MS to determine the drug concentration in plasma. […] Table 5 Pharmacokinetic Parameters after Subcutaneous Injection of Different Polypeptide Compounds to Rats

db/db mice = assay: Pharmacodynamic effects in db/db mice, single subcutaneous administration (blood glucose); assay type: in vivo; conditions: single s.c. 10 nmol/kg
Method: In this study, 8-9 week old male db/db mice were used. The db/db mice were placed in an individual ventilated cage (IVC) facility with a controlled temperature (20-26°C) and humidity (40-70%) and a controlled 12h:12 h light-dark cycle. The mice can receive food and water ad libitum. Blood was sampled at the tail tip, and the random base blood glucose was measured by a Roche blood glucose meter. The mice were randomly divided into groups according to the random initial fasting blood glucose and initial body weight (n=6/group), and each group had similar body weight and blood glucose.
After a single subcutaneous administration, the random base blood glucoses were recorded at the set time point (0 to 120 hours, the recording of the random base blood glucose was stopped until there was no difference between the random base blood glucose of the compound and that of the vehicle group), and the daily body weight and food intake were also recorded. The data results were statistically analyzed using GraphPad Prism8, and the statistical differences among the groups were analyzed following a T-Test. Significant differences were identified at p<0.05.
Hypoglycemic Duration: the longest time during which the random base blood glucose of the compound has a significant difference (p<0.05) vs. the vehicle group. Table 13. Hypoglycemic Duration of the Compounds

human GLP-1R = human GLP-1R (Homo sapiens, UniProt P43220); assay: In vitro binding activity to human GLP-1 receptor ([125I]GLP-1 displacement, crude cell membranes); design: expressed in transfected cells; conditions: ratio of the Ki value of the endogenous ligand to the Ki value of the test compound; larger ratio = stronger binding
Method: as §1
The IC50 concentration was converted to Ki (Ki was the inhibition constant) using the Cheng-Prusoff equation.

[2] = SD rats, subcutaneous injection, 50 nmol/kg

Sequence of human GLP-1R (P43220 24-463): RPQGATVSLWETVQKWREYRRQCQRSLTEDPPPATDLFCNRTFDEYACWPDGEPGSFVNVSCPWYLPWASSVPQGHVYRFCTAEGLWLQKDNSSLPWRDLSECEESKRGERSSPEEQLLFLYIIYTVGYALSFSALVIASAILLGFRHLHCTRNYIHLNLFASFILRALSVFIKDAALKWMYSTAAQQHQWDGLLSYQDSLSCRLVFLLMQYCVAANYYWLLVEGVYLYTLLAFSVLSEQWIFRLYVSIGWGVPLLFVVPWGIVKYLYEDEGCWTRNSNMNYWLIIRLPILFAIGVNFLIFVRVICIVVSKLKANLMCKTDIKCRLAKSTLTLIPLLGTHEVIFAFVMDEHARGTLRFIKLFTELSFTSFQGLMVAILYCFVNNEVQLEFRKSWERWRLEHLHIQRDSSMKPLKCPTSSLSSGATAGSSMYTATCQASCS

| SMILES | GIPR Ki ratio (human GIP Receptor) | Tmax [1] [h] | half-life [1] [h] | inhibition of the blood glucose AUC, times of that of P001 (db/db mice) [times] | inhibition of the blood glucose AUC, times of that of Tirzepatide (db/db mice) [times] | Hypoglycemic Duration (db/db mice; Group 1, longest time with p<0.05 vs. vehicle) [h] | GLP-1R Ki ratio (human GLP-1R) | AUC(0-inf) [1, 2] [µM·h] | AUC(0-t) [1, 2] [µM·h] | Cmax [1, 2] [nM] | half-life ([1]; SD rats, subcutaneous injection, 50 nmol/kg, read-out: T1/2 (converted)) [h] | Tmax ([1]; SD rats, subcutaneous injection, 50 nmol/kg, read-out: Tmax) [h] | Hypoglycemic Duration (db/db mice; Group 2, longest time with p<0.05 vs. vehicle) [h] |
| --- | --- | --- | --- | --- | --- | --- | --- | --- | --- | --- | --- | --- | --- |
| CC[C@H](C)[C@H](NC(=O)C(C)(C)NC(=O)[C@H](Cc1ccc(O)cc1)NC(=O)[C@H](CC(=O)O)NC(=O)[C@H](CO)NC(=O)[C@@H](NC(=O)C(C)(Cc1ccccc1)NC(=O)[C@@H](NC(=O)CNC(=O)[C@H](CCC(=O)O)NC(=O)C(C)(C)NC(=O)[C@@H](N)Cc1ccc(O)cc1)[C@@H](C)O)[C@@H](C)O)C(=O)NC(C)(C)C(=O)N[C@@H](CC(C)C)C(=O)N[C@@H](CC(=O)O)C(=O)N[C@@H](CCCCN)C(=O)N[C@@H](CCC(N)=O)C(=O)N[C@@H](C)C(=O)N[C@@H](CCC(N)=O)C(=O)N[C@@H](C)C(=O)N[C@@H](CCC(=O)O)C(=O)N[C@@H](Cc1ccccc1)C(=O)N[C@H](C(=O)N[C@@H](CCCCNC(=O)COCCOCCNC(=O)COCCOCCNC(=O)CC[C@H](NC(=O)CCCCCCCCCCCCCCCCCCCCC(=O)O)C(=O)O)C(=O)N[C@@H](Cc1c[nH]c2ccccc12)C(=O)N[C@@H](CC(C)C)C(=O)N[C@@H](CC(C)C)C(=O)N[C@@H](CCCCN)C(=O)NCC(=O)NCC(=O)N1CCC[C@H]1C(=O)N[C@@H](CO)C(=O)N[C@@H](CO)C(=O)NCC(=O)N[C@@H](C)C(=O)N1CCC[C@H]1C(=O)N1CCC[C@H]1C(=O)N1CCC[C@H]1C(=O)N[C@@H](CO)C(=O)N[C@@H](CCCCN)C(N)=O)C(C)C (stereo partly shown) [Compound P014] | 0.08 | 24 | 14.8 ± 0.503 | 2.6 | 1.7 | 104 | 0.37 | – | – | – | – | – | – |
| CC[C@H](C)[C@H](NC(=O)C(C)(C)NC(=O)[C@H](Cc1ccc(O)cc1)NC(=O)[C@H](CC(=O)O)NC(=O)[C@H](CO)NC(=O)[C@@H](NC(=O)C(C)(Cc1ccccc1)NC(=O)[C@@H](NC(=O)CNC(=O)[C@H](CCC(=O)O)NC(=O)C(C)(C)NC(=O)[C@@H](N)Cc1ccc(O)cc1)[C@@H](C)O)[C@@H](C)O)C(=O)NC(C)(C)C(=O)N[C@@H](CC(C)C)C(=O)N[C@@H](CC(=O)O)C(=O)N[C@@H](CCCCN)C(=O)N[C@@H](CCC(N)=O)C(=O)N[C@@H](C)C(=O)N[C@@H](CCC(N)=O)C(=O)N[C@@H](C)C(=O)N[C@@H](CCC(=O)O)C(=O)N[C@@H](Cc1ccccc1)C(=O)N[C@H](C(=O)N[C@@H](CCCCNC(=O)COCCOCCNC(=O)COCCOCCNC(=O)COCCOCCNC(=O)CC[C@H](NC(=O)CCCCCCCCCCCCCCCCCCCCC(=O)O)C(=O)O)C(=O)N[C@@H](Cc1c[nH]c2ccccc12)C(=O)N[C@@H](CC(C)C)C(=O)N[C@@H](CC(C)C)C(=O)N[C@@H](CCCCN)C(=O)NCC(=O)NCC(=O)N1CCC[C@H]1C(=O)N[C@@H](CO)C(=O)N[C@@H](CO)C(=O)NCC(=O)N[C@@H](C)C(=O)N1CCC[C@H]1C(=O)N1CCC[C@H]1C(=O)N1CCC[C@H]1C(=O)N[C@@H](CO)C(=O)N[C@@H](CCCCN)C(N)=O)C(C)C (stereo partly shown) [Compound P016] | 0.11 | – | – | – | 2.2 | – | 0.63 | 5.07 ± 0.262 | 4.84 ± 0.27 | 119 ± 7 | 14.1 ± 0.153 | 24 | 104 |
